Measured values: patent US10040781B2, “Tank-binding kinase inhibitor compounds” (Gilead Sciences, Inc., priority 2014, dated 2018)
Where two headings read alike, the source gives them in different places. Values belong to the molecule of their own block, whether it stands above or below them.

Tests used:
[1] = molecular target: IKKε (Homo sapiens (Human), UniProt Q14164); test: IKKε TR-FRET enzymatic assay; format: biochemical; details: read-out: IKKe IC50
[2] = molecular target: hJAK2 (Homo sapiens (Human), UniProt O60674); test: hJAK2 LANCE TR-FRET enzymatic assay; format: biochemical; details: read-out: JAK2 IC50
hJAK2, sequence (O60674 whole entry): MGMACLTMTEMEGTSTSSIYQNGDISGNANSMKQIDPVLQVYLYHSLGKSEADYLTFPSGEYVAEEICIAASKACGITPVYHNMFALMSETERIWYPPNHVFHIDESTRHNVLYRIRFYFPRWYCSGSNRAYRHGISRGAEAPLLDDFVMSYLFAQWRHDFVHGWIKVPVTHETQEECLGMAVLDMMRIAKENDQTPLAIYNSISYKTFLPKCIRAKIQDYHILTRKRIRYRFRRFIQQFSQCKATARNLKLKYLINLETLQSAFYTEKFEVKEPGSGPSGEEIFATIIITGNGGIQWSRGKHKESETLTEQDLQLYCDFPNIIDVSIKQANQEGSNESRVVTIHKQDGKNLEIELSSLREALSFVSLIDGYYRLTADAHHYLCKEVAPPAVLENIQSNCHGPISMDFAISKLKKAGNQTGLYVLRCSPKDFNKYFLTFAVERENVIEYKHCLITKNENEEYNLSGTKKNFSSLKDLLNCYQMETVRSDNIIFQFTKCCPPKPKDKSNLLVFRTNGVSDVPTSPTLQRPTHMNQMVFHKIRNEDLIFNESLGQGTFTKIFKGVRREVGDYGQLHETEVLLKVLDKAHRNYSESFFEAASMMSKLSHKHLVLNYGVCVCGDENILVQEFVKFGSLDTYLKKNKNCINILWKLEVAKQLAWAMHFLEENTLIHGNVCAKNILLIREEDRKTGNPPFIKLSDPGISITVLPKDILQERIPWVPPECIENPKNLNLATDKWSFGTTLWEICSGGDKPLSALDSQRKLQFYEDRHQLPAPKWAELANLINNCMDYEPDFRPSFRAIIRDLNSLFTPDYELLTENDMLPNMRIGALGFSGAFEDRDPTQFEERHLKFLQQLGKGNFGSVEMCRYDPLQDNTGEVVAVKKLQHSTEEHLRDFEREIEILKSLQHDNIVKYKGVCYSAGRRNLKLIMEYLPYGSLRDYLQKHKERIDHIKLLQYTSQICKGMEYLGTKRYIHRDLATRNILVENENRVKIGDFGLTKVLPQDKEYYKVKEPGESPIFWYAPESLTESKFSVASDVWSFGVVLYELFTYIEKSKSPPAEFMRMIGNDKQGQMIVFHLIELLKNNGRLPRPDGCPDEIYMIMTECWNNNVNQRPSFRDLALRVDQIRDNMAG

[3] = molecular target: TBK1 (Homo sapiens (Human), UniProt Q9UHD2); test: TBK1 TR-FRET enzymatic assay;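 also: phosphorylation of a biotinylated Ser/Thr peptide by purified full-length recombinant TBK1, read by TR-FRET after 240 min at 25 °C, IC50 is the geometric mean of at least four runs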
TBK1, sequence (Q9UHD2 whole entry): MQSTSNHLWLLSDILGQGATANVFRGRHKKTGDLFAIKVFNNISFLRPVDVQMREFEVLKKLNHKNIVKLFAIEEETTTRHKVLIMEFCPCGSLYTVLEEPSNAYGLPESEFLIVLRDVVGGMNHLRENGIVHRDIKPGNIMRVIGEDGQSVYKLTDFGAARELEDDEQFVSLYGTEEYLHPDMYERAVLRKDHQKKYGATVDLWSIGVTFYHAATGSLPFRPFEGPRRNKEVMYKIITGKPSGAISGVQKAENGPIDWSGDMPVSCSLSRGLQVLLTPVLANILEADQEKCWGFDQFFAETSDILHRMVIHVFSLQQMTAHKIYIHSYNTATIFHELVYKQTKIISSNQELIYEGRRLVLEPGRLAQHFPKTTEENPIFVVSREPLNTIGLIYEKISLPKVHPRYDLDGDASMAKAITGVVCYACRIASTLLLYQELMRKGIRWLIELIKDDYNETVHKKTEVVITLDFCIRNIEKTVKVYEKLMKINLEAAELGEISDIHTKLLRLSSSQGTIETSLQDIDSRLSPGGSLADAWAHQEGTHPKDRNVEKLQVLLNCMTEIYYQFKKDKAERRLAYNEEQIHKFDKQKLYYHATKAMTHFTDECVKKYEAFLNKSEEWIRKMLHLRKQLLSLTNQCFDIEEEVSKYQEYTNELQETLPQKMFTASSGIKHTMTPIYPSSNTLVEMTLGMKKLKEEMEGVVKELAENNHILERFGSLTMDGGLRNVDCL

[4] = TR-FRET, 2×Km ATP, geometric mean of minimum four determinations

IKKε, sequence (Q14164 whole entry): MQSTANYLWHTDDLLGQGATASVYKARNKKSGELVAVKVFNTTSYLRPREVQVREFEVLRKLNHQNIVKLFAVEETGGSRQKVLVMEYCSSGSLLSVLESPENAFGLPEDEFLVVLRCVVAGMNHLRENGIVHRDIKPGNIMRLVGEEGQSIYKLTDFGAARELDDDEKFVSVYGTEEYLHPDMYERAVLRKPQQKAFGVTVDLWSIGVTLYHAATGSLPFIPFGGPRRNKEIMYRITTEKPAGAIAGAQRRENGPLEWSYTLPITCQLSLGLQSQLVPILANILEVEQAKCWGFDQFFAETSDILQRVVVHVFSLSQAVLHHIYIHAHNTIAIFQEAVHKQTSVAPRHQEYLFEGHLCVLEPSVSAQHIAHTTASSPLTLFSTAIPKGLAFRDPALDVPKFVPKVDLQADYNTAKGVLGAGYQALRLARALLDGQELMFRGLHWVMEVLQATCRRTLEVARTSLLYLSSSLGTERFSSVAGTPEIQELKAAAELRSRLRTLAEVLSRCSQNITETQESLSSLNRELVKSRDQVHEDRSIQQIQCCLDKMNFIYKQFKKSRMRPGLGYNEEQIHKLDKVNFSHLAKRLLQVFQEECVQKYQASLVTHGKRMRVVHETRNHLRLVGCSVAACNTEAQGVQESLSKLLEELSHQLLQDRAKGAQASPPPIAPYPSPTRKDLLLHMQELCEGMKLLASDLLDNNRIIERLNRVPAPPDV

IC50 [1]: 6 nM
IC50 [2]: 154 nM
IC50 [3]: 24 nM
SMILES: N#Cc1cc(-c2ncnc(Nc3cnn(C4CCNCC4)c3)n2)ccc1O[C@H]1CCCC[C@H]1F (racemic) [Example 295, rac-2-(((1S,2R)-2-fluorocyclohexyl)oxy)-5-(4-((1-(piperidin-4-yl)-1H-pyrazol-4-yl)amino)-1,3,5-triazin-2-yl)benzonitrile]

IC50 [1, 4]: 3 nM
IC50 [2]: 140 nM
IC50 [3]: 5 nM
SMILES: C[C@@H]1CN(C(=O)CO)CC(F)(F)[C@H]1Oc1ccc(-c2ncnc(Nc3ccc(N4CCN(C5COC5)CC4)cc3)n2)cc1C#N (relative stereo) [Example 432, trans-2-((3,3-difluoro-1-(2-hydroxyacetyl)-5-methylpiperidin-4-yl)oxy)-5-(4-((4-(4-(oxetan-3-yl)piperazin-1-yl)phenyl)amino)-1,3,5-triazin-2-yl)benzonitrile]

IC50 [1, 4]: 12 nM
IC50 [2]: 21 nM
IC50 [3]: 9 nM
SMILES: N#Cc1cc(-c2ncnc(Nc3ccc(N4CCN(C5COC5)CC4)cc3)n2)ccc1O[C@H]1CCN(C(=O)CO)C[C@H]1C(F)(F)F (relative stereo) [Example 439, cis-2-((1-(2-hydroxyacetyl)-3-(trifluoromethyl)piperidin-4-yl)oxy)-5-(4-((4-(4-(oxetan-3-yl)piperazin-1-yl)phenyl)amino)-1,3,5-triazin-2-yl)benzonitrile]

IC50 [1]: 14 nM
IC50 [2]: 270 nM
IC50 [3]: 2 nM
SMILES: N#Cc1cc(-c2ncnc(Nc3ccc(N4CCN(C5COC5)CC4)cc3)n2)ccc1O[C@@H]1CCNCC1(F)F (single isomer, unassigned) [Example 150]

IC50 [1]: 3 nM
IC50 [2]: 171 nM
IC50 [3]: 1 nM
SMILES: C[C@@H](O)C(=O)N1CC[C@H](Oc2ccc(-c3ncnc(Nc4ccc(N5CCN(C6COC6)CC5)cc4)n3)cc2C#N)C(F)(F)C1 (single isomer, unassigned) [Example 158]

IC50 [1]: 209 nM
IC50 [2]: 207 nM
IC50 [3]: 79 nM
SMILES: C[C@@H](O)C(=O)N1CC[C@@H](Oc2ccc(-c3ncnc(Nc4ccc(N5CCN(C6COC6)CC5)cc4)n3)cc2C#N)C(F)(F)C1 (single isomer, unassigned) [Example 159]

IC50 [1]: 1 nM
IC50 [2]: 49 nM
IC50 [3]: 2 nM
SMILES: CC1(C)CN(C(=O)CO)C[C@H](F)[C@@H]1Oc1ccc(-c2ncnc(Nc3ccc(N4CCN(C5COC5)CC4)cc3)n2)cc1C#N (single isomer, unassigned) [Example 178]

IC50 [1]: 13 nM
IC50 [2]: 234 nM
IC50 [3]: 8 nM
SMILES: CC1(C)CN(C(=O)CO)C[C@@H](F)[C@H]1Oc1ccc(-c2ncnc(Nc3ccc(N4CCN(C5COC5)CC4)cc3)n2)cc1C#N (single isomer, unassigned) [Example 179]

IC50 [1]: 10 nM
IC50 [2]: 90 nM
IC50 [3]: 2 nM
SMILES: N#Cc1cc(-c2ncnc(Nc3ccc(N4CCN(C5COC5)CC4)cc3)n2)ccc1O[C@H]1CN(C(=O)CO)CC1(F)F (single isomer, unassigned) [Example 195]

IC50 [1]: ≥ 1000 nM
IC50 [2]: ≥ 1000 nM
SMILES: N#Cc1cc(-c2ncnc(Nc3ccc(N4CCN(C5COC5)CC4)cc3)n2)ccc1O[C@H]1CCN(C(=O)[C@@H]2CCCN2)C[C@H]1F [Example 133, 2-(((3R,4S)-3-fluoro-1-((S)-pyrrolidine-2-carbonyl)piperidin-4-yl)oxy)-5-(4-((4-(4-(oxetan-3-yl)piperazin-1-yl)phenyl)amino)-1,3,5-triazin-2-yl)benzonitrile]

IC50 [1, 4]: 1 nM
IC50 [3]: 2 nM
SMILES: COc1cc(Nc2ncnc(-c3ccc(O[C@H]4CCN(C(=O)[C@@H](O)CO)CC4(F)F)c(C#N)c3)n2)ccc1N1CCN(C2COC2)CC1 [Example 577, 2-(((S)-1-((S)-2,3-dihydroxypropanoyl)-3,3-difluoropiperidin-4-yl)oxy)-5-(4-((3-methoxy-4-(4-(oxetan-3-yl)piperazin-1-yl)phenyl)amino)-1,3,5-triazin-2-yl)benzonitrile]

IC50 [1]: 20 nM
IC50 [3]: 12 nM
SMILES: N#Cc1cc(-c2ncnc(Nc3ccc(N4CCN(C5COC5)CC4)cc3)n2)ccc1OCC1(C(N)=O)CC1 [Example 605, 1-((2-cyano-4-(4-((4-(4-(oxetan-3-yl)piperazin-1-yl)phenyl)amino)-1,3,5-triazin-2-yl)phenoxy)methyl)-cyclopropanecarbox-amide]

Continued, molecule first:

SMILES: N#Cc1cc(-c2ncnc(Nc3ccc(N4CCN(C5COC5)CC4)cc3)n2)ccc1OC1CCNCC1(F)F (racemic) [Example 148, 2-((3,3-difluoropiperidin-4-yl)oxy)-5-(4-((4-(4-(oxetan-3-yl)piperazin-1-yl)phenyl)amino)-1,3,5-triazin-2-yl)benzonitrile]
IC50 [1]: 23 nM
IC50 [2]: 242 nM
IC50 [3]: 3 nM

SMILES: C[C@H]1CN(C(=O)CO)CC(F)(F)[C@H]1Oc1ccc(-c2ncnc(Nc3ccc(N4CCN(C5COC5)CC4)cc3)n2)cc1C#N (relative stereo) [Example 430, Cis 2-((3,3-difluoro-1-(2-hydroxyacetyl)-5-methylpiperidin-4-yl)oxy)-5-(4-((4-(4-(oxetan-3-yl)piperazin-1-yl)phenyl)amino)-1,3,5-triazin-2-yl)benzonitrile]
IC50 [1, 4]: 2 nM
IC50 [2]: 65 nM
IC50 [3]: 4 nM

SMILES: N#Cc1cc(-c2ncnc(Nc3ccc(N4CCN(C5COC5)CC4)cc3)n2)ccc1O[C@H]1CCN(C(=O)CO)C[C@@H]1C(F)(F)F (relative stereo) [Example 438, Trans-2-((1-(2-hydroxyacetyl)-3-(trifluoromethyl)piperidin-4-yl)oxy)-5-(4-((4-(4-(oxetan-3-yl)piperazin-1-yl)phenyl)amino)-1,3,5-triazin-2-yl)benzonitrile]
IC50 [1, 4]: 8 nM
IC50 [2]: 15 nM
IC50 [3]: 6 nM

SMILES: N#Cc1cc(-c2ncnc(Nc3ccc(N4CCN(C5COC5)CC4)cc3)n2)ccc1O[C@H]1CCNCC1(F)F (single isomer, unassigned) [Example 149]
IC50 [1]: 229 nM
IC50 [2]: 330 nM
IC50 [3]: 49 nM

SMILES: C[C@H](O)C(=O)N1CC[C@H](Oc2ccc(-c3ncnc(Nc4ccc(N5CCN(C6COC6)CC5)cc4)n3)cc2C#N)C(F)(F)C1 (single isomer, unassigned) [Example 155]
IC50 [1]: 1 nM
IC50 [2]: 198 nM

SMILES: C[C@H](O)C(=O)N1CC[C@@H](Oc2ccc(-c3ncnc(Nc4ccc(N5CCN(C6COC6)CC5)cc4)n3)cc2C#N)C(F)(F)C1 (single isomer, unassigned) [Example 156]
IC50 [1]: 23 nM
IC50 [2]: 196 nM
IC50 [3]: 16 nM

SMILES: N#Cc1cc(-c2ncnc(Nc3ccc(N4CCN(C5COC5)CC4)cc3)n2)ccc1O[C@@H]1CN(C(=O)CO)CC1(F)F (single isomer, unassigned) [Example 196]
IC50 [1]: 391 nM
IC50 [2]: 118 nM
IC50 [3]: 114 nM

SMILES: N#Cc1cc(-c2ncnc(Nc3ccc(N4CCN(C5COC5)CC4)cc3)n2)ccc1O[C@H]1CCN(Cc2nc(=O)[nH][nH]2)C[C@H]1F [Example 436, 2-(((3R,4S)-3-fluoro-1-((5-oxo-2,5-dihydro-1H-1,2,4-triazol-3-yl)methyl)piperidin-4-yl)oxy)-5-(4-((4-(4-(oxetan-3-yl)piperazin-1-yl)phenyl)amino)-1,3,5-triazin-2-yl)benzonitrile]
IC50 [1, 4]: 99 nM
IC50 [2]: 156 nM

SMILES: Cc1cc(Nc2ncnc(-c3ccc(O[C@@H]4CCC(=O)NC4)c(C#N)c3)n2)ccc1N1CCN(C2COC2)CC1 [Example 532, (R)-5-(4-((3-methyl-4-(4-(oxetan-3-yl)piperazin-1-yl)phenyl)amino)-1,3,5-triazin-2-yl)-2-((6-oxopiperidin-3-yl)oxy)benzonitrile]
IC50 [1, 4]: 2 nM
IC50 [3]: 3 nM
